Molecules are shown by their SMILES. Where only a bound is given, the exact number is not on record here.

In one test the target is T1, human MRGPR X4 (Homo sapiens, UniProt Q96LA9).
T1 construct: expressed in transfected cells
T1 sequence (Q96LA9 whole entry): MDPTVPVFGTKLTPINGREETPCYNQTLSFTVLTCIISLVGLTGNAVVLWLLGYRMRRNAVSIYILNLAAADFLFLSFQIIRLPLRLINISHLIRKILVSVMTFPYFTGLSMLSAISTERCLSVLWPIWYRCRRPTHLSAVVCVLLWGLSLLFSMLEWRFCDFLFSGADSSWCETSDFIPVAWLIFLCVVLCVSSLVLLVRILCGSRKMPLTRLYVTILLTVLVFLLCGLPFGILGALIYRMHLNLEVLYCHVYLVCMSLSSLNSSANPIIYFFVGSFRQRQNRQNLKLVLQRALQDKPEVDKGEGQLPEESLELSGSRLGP
Briefly: MRGPR X4 antagonist activity, IP-One Gq HTRF assay in stably transfected HEK cells. The class given is cell-based.
Settings: not given
A digest of the protocol: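 IC50 comes from HTRF IP-1 accumulation in stably transfected HEK cells expressing human MRGPR X4. Compounds (10 uM top, 1:3 serial, 10 points) were co-incubated with 10 μM bilirubin, 20 μM deoxycholic acid or 100 μM conjugated bilirubin in LiCl-containing buffer, pH 8, for 1 h at 37 °C plus 30 min at room temperature.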
For the molecule `O=C(NCCc1nnc2ccccn12)c1nn(Cc2ccc3sccc3c2)c2ccccc12` [Compound 495], the IC50 is below 100 nM.

`O=C(NCCc1nnc2ccccn12)c1nn(Cc2cc3ccccc3o2)c2ccccc12` [Compound 496] gave an IC50 below 100 nM. Same read-out and setting: in the case of `O=C(NCCc1nnc2ccccn12)c1nn(Cc2nc3ccccc3s2)c2ccccc12` [Compound 497] it was below 100 nM; in that of `O=C(NCCc1nnc2ccccn12)c1nn(Cc2cnn(-c3ccccc3)c2)c2ccccc12` [Compound 498], 100 to 500 nM; in that of `COc1ccc(-c2nc(Cn3nc(C(=O)NCCc4nnc5ccccn45)c4ccccc43)cs2)cc1` [Compound 499], 501 to 1000 nM. Same read-out and setting: the same measure for `O=C(NCCc1nnc2ccccn12)c1nn(Cc2cnc(C(F)(F)F)s2)c2ccccc12` [Compound 501]: 100 to 500 nM.

In turn, `O=C(NCCc1nnc2ccccn12)c1nn(Cc2cn3cc(Br)ccc3n2)c2ccccc12` [Compound 502] had an IC50 above 2500 nM. The same measure, in the same setting: the same measure for `O=C(NCCc1nnc2ccccn12)c1nn(CCC2CCCC2)c2ccccc12` [Compound 504]: 501 to 1000 nM; for `O=C(NCCc1nnc2ccccn12)c1nn(CCc2ccc(Cl)c(Cl)c2)c2ccccc12` [Compound 505]: 1000 to 2500 nM; for `O=C(NCCc1nnc2ccccn12)c1nn(Cc2ccc3c(c2)OC(F)(F)O3)c2ccccc12` [Compound 507]: 100 to 500 nM. Still for that read-out and setting: the same measure for `O=C(NCCc1nnc2ccccn12)c1nn(Cc2ccc3c(c2)OCO3)c2ccccc12` [Compound 508]: 100 to 500 nM; for `O=C(NCCc1nnc2ccccn12)c1nn(Cc2cc(F)cc(C(F)(F)F)c2)c2ccccc12` [Compound 509]: 100 to 500 nM; for `O=C(NCCc1nnc2ccccn12)c1nn(Cc2nc(C3CCC3)no2)c2ccccc12` [Compound 511]: 100 to 500 nM. The same measure, in the same setting: the same measure for `O=C(NCCc1nnc2ccccn12)c1nn(Cc2csc(-c3ccccc3)n2)c2ccccc12` [Compound 512]: 100 to 500 nM. Molecule `O=C(NCCc1nnc2ccccn12)c1nn(Cc2nc(C(F)(F)F)no2)c2ccccc12` [Compound 513] returned an IC50 above 2500 nM. Same read-out and setting: the same measure for `Cc1oc(-c2ccccc2F)nc1Cn1nc(C(=O)NCCc2nnc3ccccn23)c2ccccc21` [Compound 514]: 100 to 500 nM; for `Cn1nccc1Cn1nc(C(=O)NCCc2nnc3ccccn23)c2ccccc21` [Compound 515]: above 2500 nM; for `O=C(NCCc1nnc2ccccn12)c1nn(Cc2nc3ccccc3[nH]c2=O)c2ccccc12` [Compound 516]: above 2500 nM. On the same count and under the same terms, the same measure for `O=C(Cn1nc(C(=O)NCCc2nnc3ccccn23)c2ccccc21)c1ccc(F)c(F)c1` [Compound 517]: 1000 to 2500 nM; for `O=C(NCCc1nnc2ccccn12)c1nn(Cc2cccn3ccnc23)c2ccccc12` [Compound 518]: 1000 to 2500 nM; for `COc1ccc2nc(Cn3nc(C(=O)NCCc4nnc5ccccn45)c4ccccc43)[nH]c2c1` [Compound 519]: 501 to 1000 nM. Molecule `Cc1occc1Cn1nc(C(=O)NCCc2nnc3ccccn23)c2ccccc21` [Compound 520] returned an IC50 above 2500 nM. The molecule `O=C(NCCc1nnc2ccccn12)c1nn(Cc2nc3ccccc3[nH]2)c2ccccc12` [Compound 521] showed an IC50 of 1000 to 2500 nM.

`O=C(NCCc1nnc2ccccn12)c1nn(Cc2nc3ccc(C(F)(F)F)cc3[nH]2)c2ccccc12` [Compound 522] showed an IC50 of 501 to 1000 nM. In the case of `Cc1cccc(CCn2nc(C(=O)NCCc3nnc4ccccn34)c3ccccc32)c1` [Compound 523], the IC50 lay in the range of 1000 to 2500 nM.

As to `O=C(NCCc1nnc2ccccn12)c1nn(Cc2ccc(Cl)c(F)c2)c2ccccc12` [Compound 524], the IC50 is below 100 nM. The same measure, in the same setting: in the case of `O=C(NCCc1nnc2ccccn12)c1nn(Cc2ccc(Cl)cc2Cl)c2ccccc12` [Compound 525] it was below 100 nM; in that of `O=C(NCCc1nnc2ccccn12)c1nn(Cc2ccc(Cl)c(Cl)c2)c2ccccc12` [Compound 526], below 100 nM; in that of `O=C(NCCc1nnc2ccccn12)c1nn(Cc2ccc(Cl)cc2F)c2ccccc12` [Compound 527], below 100 nM.

Regarding `Cc1ccc(Cn2nc(C(=O)NCCc3nnc4ccccn34)c3ccccc32)cc1` [Compound 528], the IC50 was below 100 nM. Same read-out and setting: the same measure for `O=C(NCCc1nnc2ccccn12)c1nn(Cc2ccc(Cl)cc2)c2ccc(Br)cc12` [Compound 529]: below 100 nM; for `Cc1ccc2c(c1)c(C(=O)NCCc1nnc3ccccn13)nn2Cc1ccc(Cl)cc1` [Compound 530, N-(2-([1,2,4]triazolo[4,3-a]pyridin-3-yl)ethyl)-1-(4-chlorobenzyl)-5-methyl-1H-indazole-3-carboxamide]: below 100 nM; for `O=C(NCCc1nnc2ccccn12)c1nn(Cc2ccc(C(F)(F)F)cc2)c2ccc(F)cc12` [Compound 531]: below 100 nM. Same read-out and setting: in the case of `O=C(NCCc1nnc2ccccn12)c1nn(Cc2ccc3ccccc3c2)c2ccc(F)cc12` [Compound 532, N-(2-([1,2,4]triazolo[4,3-a]pyridin-3-yl)ethyl)-5-fluoro-1-(naphthalen-2-ylmethyl)-1H-indazole-3-carboxamide] it was below 100 nM; in that of `O=C(NCCn1nnc2ccccc21)c1nn(Cc2ccc(Cl)cc2)c2ccc(F)cc12` [Compound 533], below 100 nM. `Cc1[nH]c2ccc(O)cc2c1CCNC(=O)c1nn(Cc2ccc(Cl)cc2)c2ccc(F)cc12` [Compound 534] gave an IC50 below 100 nM. Still for that read-out and setting: the same measure for `O=C(NCCc1nnc2ccccn12)c1nn(Cc2cc3c(cc2Cl)OCO3)c2ccc(F)cc12` [Compound 536]: below 100 nM; for `O=C(NCCc1nnc2ccccn12)c1nn(Cc2ccc3c(c2)CCC3)c2ccc(F)cc12` [Compound 537]: below 100 nM. `O=C(NCCc1nnc2ccccn12)c1nn(Cc2ccc3sccc3c2)c2ccc(F)cc12` [Compound 538] came in with an IC50 below 100 nM.

On to `O=C(NCCc1nnc2ccccn12)c1nn(Cc2ccc(Cl)cc2)c2c(Cl)cccc12` [Compound 539], for which the IC50 was below 100 nM.

Molecule `O=C(NCCc1nnc2ccccn12)c1nn(Cc2ccc(Cl)cc2)c2c(F)cccc12` [Compound 540] showed an IC50 below 100 nM. The same measure, in the same setting: in the case of `O=C(NCCc1nnc2ccccn12)c1nn(Cc2ccc(Cl)cc2)c2c(Br)cccc12` [Compound 541] it was below 100 nM. `N#Cc1ccc2c(C(=O)NCCc3nnc4ccccn34)nn(Cc3ccc(Cl)cc3)c2c1` [Compound 542] registered an IC50 below 100 nM. `COc1ccc2c(c1)c(C(=O)NCCc1nnc3ccccn13)nn2Cc1ccc(Cl)cc1` [Compound 543] returned an IC50 of 100 to 500 nM. Molecule `Cn1c(Cn2nc(C(=O)NCCc3nnc4ccccn34)c3ccccc32)nc2ccccc21` [Compound 544] displayed an IC50 of 100 to 500 nM.

For the molecule `O=C(NCCc1nnc2ccccn12)c1nn(Cc2cccc3c2CCC3)c2ccccc12` [Compound 545], the IC50 was 100 to 500 nM. Still for that read-out and setting: the same measure for `N#Cc1cccc2c1c(C(=O)NCCc1nnc3ccccn13)nn2Cc1ccc(Cl)cc1` [Compound 546]: 100 to 500 nM; for `O=C(NCCc1nnc2ccccn12)c1nn(Cc2ccc(Cl)cc2)c2cccc(Cl)c12` [Compound 547]: 501 to 1000 nM; for `O=C(NCCc1nnc2ccccn12)c1nn(Cc2cccc3ccsc23)c2ccccc12` [Compound 548]: 501 to 1000 nM. The same measure, in the same setting: in the case of `Cc1ccc2c(C(=O)NCCc3nnc4ccccn34)nn(Cc3ccc(Cl)cc3)c2c1` [Compound 549] it was 100 to 500 nM. On the same count and under the same terms, in the case of `O=C(NCCc1nnc2ccccn12)c1nn(Cc2ccc(Cl)cc2)c2cc(Br)ccc12` [Compound 550] it was 100 to 500 nM. For the molecule `N#Cc1ccc2c(c1)c(C(=O)NCCc1nnc3ccccn13)nn2Cc1ccc(Cl)cc1` [Compound 551], the IC50 is below 100 nM. The same measure, in the same setting: in the case of `O=C(NCCc1nnc2ccccn12)c1nn(Cc2ccc(Cl)cc2)c2ccc(I)cc12` [Compound 552] it was below 100 nM; in that of `O=C(NCCc1nnc2ccccn12)c1nn(Cc2ccc(C(F)(F)F)cc2Cl)c2ccccc12` [Compound 553], below 100 nM. On the same count and under the same terms, in the case of `Cc1cc(Cl)ccc1Cn1nc(C(=O)NCCc2nnc3ccccn23)c2ccccc21` [Compound 554] it was below 100 nM; in that of `Cc1cc(Cn2nc(C(=O)NCCc3nnc4ccccn34)c3ccccc32)ccc1Cl` [Compound 555], below 100 nM.

`O=C(NCCc1nnc2ccccn12)c1nn(Cc2ccc3cc[nH]c3c2)c2ccccc12` [Compound 556]: the IC50 was below 100 nM. Still for that read-out and setting: the same measure for `Cc1cc(C)c2oc(Cn3nc(C(=O)NCCc4nnc5ccccn45)c4ccccc43)cc2c1` [Compound 557]: 100 to 500 nM. Same read-out and setting: in the case of `O=C(NCCc1nnc2ccccn12)c1nn(Cc2cc3ccccc3s2)c2ccccc12` [Compound 558] it was below 100 nM. For `O=C(NCCc1nnc2ccccn12)c1nn(Cc2ccc3c(c2)CCCC3)c2ccccc12` [Compound 559], the IC50 was below 100 nM.

The molecule `Cc1ccc2nc(CCNC(=O)c3nn(Cc4ccc(Cl)cc4)c4ccccc34)[nH]c2c1` [Compound 560] came in with an IC50 of 100 to 500 nM. On the same count and under the same terms, in the case of `Cc1cccc2[nH]c(CCNC(=O)c3nn(Cc4ccc(Cl)cc4)c4ccccc34)nc12` [Compound 561] it was below 100 nM; in that of `O=C(NCCc1nnc2ccccn12)c1nn(Cc2ccc(Cl)cc2)c2cc(Cl)ccc12` [Compound 562], below 100 nM; in that of `COc1ccc2c(C(=O)NCCc3nnc4ccccn34)nn(Cc3ccc(Cl)cc3)c2c1` [Compound 563], below 100 nM.

The same test, now with this note: versus 20 μM deoxycholic acid agonist; HEK cells expressing human MRGPR X4; read-out: MRGPRX4 Antagonist Activity.
Regarding `O=C(NCCc1nnc2ccccn12)c1nn(Cc2cc(-c3ccc4c(c3)OCO4)no2)c2ccccc12` [Compound 500], the IC50 lay in the range of 1000 to 2500 nM. On to `O=C(Cn1nc(C(=O)NCCc2nnc3ccccn23)c2ccccc21)c1cc2ccccc2o1` [Compound 503], for which the IC50 fell in the range of 501 to 1000 nM.

As for `COc1ccccc1CCCn1nc(C(=O)NCCc2nnc3ccccn23)c2ccccc21` [Compound 506], the IC50 was above 2500 nM. On the same count and under the same terms, the same measure for `CS(=O)(=O)c1cccc(Cn2nc(C(=O)NCCc3nnc4ccccn34)c3ccccc32)c1` [Compound 510]: above 2500 nM.

These data come from patent publication US20240254089A1, “MODULATORS OF MAS-RELATED G-PROTEIN RECEPTOR X4 AND RELATED PRODUCTS AND METHODS” (ESCIENT PHARMACEUTICALS, INC., priority 2020, published 2024).
